Test results as given in US9844564B2 (Industrial Cooperation Foundation Chonbuk National …, priority 2012, dated 2017).

Legend:
[1] = tested on: DOX-induced cardio and hepatotoxicities; experiment: Doxorubicin (DOX)-induced acute heart failure animal model; format: in vivo, mice
Protocol: This animal model is associated with an increase in oxidative stress and causes significant hepatopathy after DOX injection.
Specifically, 20-week-old male mice were injected intraperitoneally once with 20 mg/kg of DOX. […] Mortality was observed up to 10 days after DOX administration. After 10 days, the mice were sacrificed and the expressions of enzymes in the heart and liver tissues were analyzed. The cardiac function of the mice was also measured by echocardiogram.

RAW 264.7 cells = experiment: NO production in LPS-treated cells (Griess reaction); format: cell-based; conditions: LPS-treated RAW 264.7, Griess
Protocol: The concentration of NO was determined using a colorimetric assay based on the Griess reaction. 50 μL of cell culture medium was collected and given 100 μL of Griess reagent (6 mg/mL) at room temperature for 10 min, and then the NO concentration was determined by measuring the absorbance at 540 nm using a microplate reader (Synergy MX, BioTek Instruments, US). The NO standard curve was constructed using known concentrations of sodium nitrite.

[2] = H2O2 scavenging by PVAX or MnP-PVAX microparticles (amplex red assay); conditions: 10 μM H2O2, 1 mg microparticles, 37° C., 6 or 24 h
Protocol: After short centrifugation, the concentration of H2O2 in the supernatant was measured using an amplex red assay (Invitrogen, US).

[3] = tested on: OVA-induced allergic airway inflammation; experiment: Mouse model of ovalbumin (OVA)-induced allergic asthma; format: in vivo, BALB/c mice; conditions: OVA-sensitized and challenged mice, ELISA
Protocol: On days 15, 16 and 17, mice were challenged intranasally with 50 μg of OVA. […] A sham group was given PBS only. On day 19, the mice were sacrificed and lung lobes were isolated along with the trachea. Lungs were also lavaged with 500 μL of PBS introduced through the trachea. BALF (bronchiolavage fluid) was centrifuged at 300×g for 5 min, and cells were rinsed and resuspended with PBS. Aliquots of the cell suspension were applied to slides by Cytospin (Hanil, Korea) at 500×g for 5 minutes allowed to air dry and stained with modified Wright's stain (Hema-3, Fisher Scientific). The numbers of macrophages, eosinophils, neutrophils and lymphocytes were determined morphologically and a minimum of 200 cells per slide were counted under the microscope (Eclipse, Nikon, Japan). The level of TNF-α in the supernatant of BALF was measured with an ELISA kit as advised by manufacturer (eBioScience, San Diego, Calif.). Lungs were perfused with PBS, removed and fixed in 4% buffered formalin. Lungs were embedded in paraffin and serial paraffin sections (3 μm) were cut. The sections were stained with hematoxylin (Yeongdong Pharma, Korea) and eosin (Showa Chemicals, Japan). Results are illustrated in FIGS. 49-51.

[4] = tested on: RAW 264.7 cells activated with PMA; experiment: ROS production in PMA-activated cells (DCFH-DA, flow cytometry); format: cell-based; conditions: PMA-stimulated; VA 0.5 mM, PVAX 100 μg
Protocol: The cells were treated with […] to stimulate the production of reactive oxygen species in the cells. After 4 hours, the cells were treated with DCFH-DA (dichlorofluorescin-diacetate), after which DCF ([…]) (a marker of intracellular oxidative stress) was analyzed using a flow cytometer (Becton Dickinson, US).

[5] = Particle stability versus loading ratio; format: physicochemical
Source text: However, PVAX allowed greater ratio of VA-CHDM (up to 60%), providing greater therapeutic effects without significant compromise of the stability.

[6] = echocardiogram, DOX-treated mice

COc1cccc2c1C(=O)c1c(O)c3c(c(O)c1C2=O)C[C@@](O)(C(=O)CO)C[C@@H]3O[C@H]1C[C@H](N)[C@H](O)[C@H](C)O1 [DOX, doxorubicin]
survival ([1]; 10 days after DOX, p<0.05): 35% | ejection fraction (EF), mean [1, 6]: 25.54 | fractional shortening (FS), mean [1, 6]: 50.41 | mortality rate ([1]; observation up to 10 days after DOX 20 mg/kg i.p., PVAX daily): 65%

C1=Cc2cc3ccc(cc4nc(cc5ccc(cc1n2)[nH]5)C=C4)[nH]3.[Mn] [MnP, manganese porphyrin]
inhibitory effects on NO production (RAW 264.7 cells): inhibitory effects on NO production, not significant | H2O2 scavenging activity [2]: H2O2 scavenging activity in a time-dependent manner

COc1cc(CO)ccc1O [VA, 4-(hydroxymethyl)-2-methoxyphenol]
inhibitory effects on NO production (RAW 264.7 cells): inhibitory effects on NO production, not significant | expression of TNF-α in BALF [3]: suppressed the expression of TNF-α | intracellular ROS generation (DCF fluorescence) [4]: only slightly suppressed ROS generation

poly(p-hydroxy-benzyl alcohol (HBA)-oxalic acid) copolymer [HPOX]
particle stability / feasibility of loading [5]: not feasible due to instability of the particles
